From PMC5532286, “In silico, in vitro, X-ray crystallography, and integrated strategies for discovering spermidine synthase inhibitors for Chagas disease” (Scientific Reports, 2017)
Where two headings read alike, the source gives them in different places.

Tests used:
TcSpdSyn [1] = target: T1, TcSpdSyn (Trypanosoma cruzi, UniProt Q4DA73); assay: biochemical; format: biochemical; details: for Hill (4PL curve fitting parameter) / Max (4PL curve fitting parameter, inhibition%) / min (4PL curve fitting parameter, inhibition%) / LoggedX50 (4PL curve fitting parameter): Supplementary Table 3; for LoggedX50 (4PL curve fitting parameter): Log10 of X50
Method: To identify TcSpdSyn inhibitors, we performed an in vitro enzyme inhibition assay on 176 compounds sourced from the chemical compound library at Astellas Pharma.
The TcSpdSyn inhibition assay was performed essentially as previously[27] described. Briefly, the assay was an enzyme-coupled assay incorporating spermidine/spermine N(1)-acetyltransferase 1 (SSAT1). 7-Diethylamino-3-(4-maleimidylphenyl)-4-methylcoumarin (CPM) (cat. D-346, Thermo Fischer Scientific) was used to measure the coenzyme A produced by the SSAT1 reaction. […] The fluorescence signal was then detected in a plate reader (Paradigm, Molecular Devices Inc.) with excitation at 405 nm and emission at 530 nm. Each IC50 value was measured using eight different concentrations in quadruplicate. […] Compounds 1, 3, and 4 were used in their salt forms, whereas compound 2 was used in its free form. The corresponding salts were oxalic acid for compound 1 and HCl for compounds 3 and 4. These compounds were dissolved in dimethyl sulfoxide (DMSO), and the maximum final DMSO concentration in the assays was 1.3%.
Supplementary Figure 3. The fitting curve for IC50 calculation of the compounds on Table 1 (Compounds 1, 2, 3, 4, and 4MCHA correspond to (a), (b), (c), (d) and (e), respectively). The vertical line and horizontal axis's represent inhibition% for TcSpdSyn and compound concentration. The closed circles show the inhibition% measured at each dose. The error bars indicate the standard error of the inhibition% measured at each dose. For curve fitting, the following four paramter logoistic (4PL) model1 is used. The paramter […]

TcSpdSyn [2] = target: T1, TcSpdSyn; set-up: method as in PMID 26327378; details: cited from earlier work

T1 sequence (Q4DA73 entry or part of it): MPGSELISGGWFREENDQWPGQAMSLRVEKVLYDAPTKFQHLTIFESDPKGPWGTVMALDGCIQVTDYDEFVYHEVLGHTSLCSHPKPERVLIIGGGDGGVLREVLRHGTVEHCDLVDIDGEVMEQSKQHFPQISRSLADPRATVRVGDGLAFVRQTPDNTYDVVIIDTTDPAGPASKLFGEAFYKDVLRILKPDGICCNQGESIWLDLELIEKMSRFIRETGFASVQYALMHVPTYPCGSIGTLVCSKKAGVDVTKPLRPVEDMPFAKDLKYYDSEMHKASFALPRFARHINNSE

| Compound | IC50 (TcSpdSyn [1]) [µM] | Hill (4PL curve fitting parameter) (TcSpdSyn [1]) | Max (4PL curve fitting parameter, inhibition%) (TcSpdSyn [1]) | min (4PL curve fitting parameter, inhibition%) (TcSpdSyn [1]) | LoggedX50 (4PL curve fitting parameter) (TcSpdSyn [1]) | IC50 (TcSpdSyn [1]; read-out: IC50 for TcSpdSyn) [µM] | IC50 (TcSpdSyn [2]) [µM] |
| --- | --- | --- | --- | --- | --- | --- | --- |
| NCCc1ccccc1F [Compound 1, 2-(2-Fluorophenyl)ethanamine] | 124 | 0.90 | 100.00 | 0.00 | 2.09 |  |  |
| O=c1nc(Nc2nc(O)nc(O)n2)sc2ccccc12 [Compound 2, 2-[(4,6-dihydroxy-1,3,5-triazin-2-yl)amino]-4H-1,3-benzothiazin-4-one] |  | 1.27 | 100.00 | 0.00 | 1.46 | 28 |  |
| CCOc1ccc2c(c1)c(CCN)cn2CC [Compound 3, 2-(5-Ethoxy-1-ethyl-1H-indol-3-yl)ethanamine] | 113 | 1.44 | 100.00 | 0.00 | 2.05 |  |  |
| NCCc1ccc(O)c(O)c1 [Compound 4, 4-(2-Aminoethyl)-1,2-benzenediol] |  | 1.03 | 100.00 | 0.00 | 1.82 | 66 |  |
| C[C@H]1CC[C@H](N)CC1 [Compound 4MCHA, trans-4-methylcyclohexylamine, reference compound] |  | 1.01 | 100.00 | 0.00 | 0.29 | 1.9 | 1.7 |
